Measured values from paper PMC5298231, “The Malaria Parasite's Lactate Transporter PfFNT Is the Target of Antiplasmodial Compounds Identified in Whole Cell Phenotypic Screens” (PLoS Pathogens, 2017).
Several values for one entry are separate records, joined by “and”; a condition that tells them apart may be missing. Equal values may be shown once.

What was measured:
[1] = tested on: MMV007839-selected culture A (PfFNT Gly107Ser); experiment: Parasite proliferation assay, MMV007839-selected culture A; assay type: cell-based, Plasmodium falciparum; conditions: MMV007839-selected culture A; mean ± SEM; read-out: IC50 value, growth inhibition
Protocol: (§1) Parasite proliferation was measured in 96-well plates using a fluorescent DNA-intercalating dye. The assays were initiated with erythrocytes infected with predominantly ring-stage parasites, and the starting parasitaemia was 0.5–1% and the haematocrit was 1%.
For MMV007839-selected culture A, the drug concentration was increased by 5 nM increments on Day 18, Day 21, and every two days thereafter. […] The cultures were provided with fresh medium and blood and diluted to reduce the parasitaemia as needed.

3D7 parasites = experiment: Parasite proliferation assay, 3D7; assay type: cell-based, Plasmodium falciparum; conditions: 3D7 (our laboratory); mean ± SEM; read-out: IC50 value, growth inhibition
Protocol: as §1

native PfFNT = target: T1, native PfFNT (Plasmodium falciparum, UniProt O77389); assay type: cell-based; conditions: native PfFNT in Xenopus oocytes; pH 6.4, 27.5°C, 10 min; mean ± SEM, n = 4; read-out: IC50, inhibition of PfFNT-mediated L-[14C]lactate transport
T1 construct: expressed in transfected cells; host or cells: Xenopus laevis oocytes (cRNA microinjected, 30 ng)
Protocol: The PfFNT-mediated uptake of L-[^14C]lactate by oocytes expressing native PfFNT (black symbols) or oocytes expressing PfFNT^Gly107Ser (white symbols) was measured in the presence of a range of different concentrations of MMV007839 (A) and MMV000972 (B). […] To enable a visual comparison between the native PfFNT and PfFNT^Gly107Ser datasets, only part of the concentration range used for the latter is shown in the main panels. The insets show the data obtained for PfFNT^Gly107Ser over the full concentration range tested. In all cases, the data are averaged from four independent experiments (using oocytes from different frogs) and are shown ± SEM. The uptake was measured at 27.5°C over 10 min at pH 6.4 using 2.7 μM L-[^14C]lactate and 600 μM unlabelled L-lactate.
The oocyte expression vectors containing PfFNT, PfENT1 and PfCRT were made previously. […] The uptake of radiolabelled substrates was measured 2–5 days post-injection at 27.5°C in ND96 buffer (containing 96 mM NaCl, 2 mM KCl, 1 mM MgCl2, 1.8 mM CaCl2, 10 mM MES and 10 mM Tris-base; pH-adjusted to the value specified in the relevant Figure legends). […] The oocytes were then transferred to separate wells of a 96-well plate, lysed with 10% SDS, and the radioactivity measured as described previously.

[2] = tested on: PfCRT (from the chloroquine-resistant Dd2 strain); experiment: [3H]chloroquine uptake by Xenopus oocytes expressing PfCRT; assay type: cell-based, Plasmodium falciparum; conditions: 1 μM and 4 μM; pH 5.5
From the text: (§2) (PfCRT; from the chloroquine-resistant Dd2 strain) and on [^3H]hypoxanthine transport by oocytes expressing the P. falciparum equilibrative nucleoside/nucleobase transporter PfENT1 [27, 28].
The oocyte expression vectors containing PfFNT, PfENT1 and PfCRT were made previously. The Gly107Ser mutant form of PfFNT was generated through site-directed mutagenesis of the oocyte expression vector containing wild-type (3D7) PfFNT using primers 9 and 10 (S2 Table). Oocytes were harvested from adult female Xenopus laevis frogs and prepared as described previously. cRNA was made using the mMessage mMachine T7 transcription kit and the MEGAclear kit (Ambion) and microinjected into oocytes as outlined elsewhere. […] The uptake of radiolabelled substrates was measured 2–5 days post-injection at 27.5°C in ND96 buffer (containing 96 mM NaCl, 2 mM KCl, 1 mM MgCl2, 1.8 mM CaCl2, 10 mM MES and 10 mM Tris-base; pH-adjusted to the value specified in the relevant Figure legends). […] The oocytes were then transferred to separate wells of a 96-well plate, lysed with 10% SDS, and the radioactivity measured as described previously.
The data are averaged from four to five independent experiments (performed using oocytes from different frogs) and are shown + SEM. In B, the uptake of [^3H]hypoxanthine (0.36 μM) was measured over 30 min at pH 6.0. […]

PfENT1 = experiment: [3H]hypoxanthine uptake by Xenopus oocytes expressing PfENT1; assay type: cell-based, Plasmodium falciparum; conditions: 1 μM and 4 μM; pH 6.0, 30 min
From the text: as §2
The oocyte expression vectors containing PfFNT, PfENT1 and PfCRT were made previously. The Gly107Ser mutant form of PfFNT was generated through site-directed mutagenesis of the oocyte expression vector containing wild-type (3D7) PfFNT using primers 9 and 10 (S2 Table). Oocytes were harvested from adult female Xenopus laevis frogs and prepared as described previously. cRNA was made using the mMessage mMachine T7 transcription kit and the MEGAclear kit (Ambion) and microinjected into oocytes as outlined elsewhere. The amount of cRNA injected (per oocyte) was 30 ng for PfFNT, 10 ng for PfENT1, and 20 ng for PfCRT. The uptake of radiolabelled substrates was measured 2–5 days post-injection at 27.5°C in ND96 buffer (containing 96 mM NaCl, 2 mM KCl, 1 mM MgCl2, 1.8 mM CaCl2, 10 mM MES and 10 mM Tris-base; pH-adjusted to the value specified in the relevant Figure legends). […] Each experiment used ten oocytes for each condition tested. The influx of the radiolabelled substrate was halted by removing the reaction buffer and washing the oocytes twice in ice-cold ND96 buffer (3.5 mL). The oocytes were then transferred to separate wells of a 96-well plate, lysed with 10% SDS, and the radioactivity measured as described previously.
The data are averaged from four to five independent experiments (performed using oocytes from different frogs) and are shown + SEM. In B, the uptake of [^3H]hypoxanthine (0.36 μM) was measured over 30 min at pH 6.0. […] The data are averaged from three to six independent experiments (performed using oocytes from different frogs) and are shown + SEM. […] (TIF) Click here for additional data file.

[3] = tested on: isolated 3D7 P. falciparum trophozoites; experiment: L-[14C]lactate uptake by isolated 3D7 trophozoites; conditions: pH 6.1, 4°C, 20 s
[4] = tested on: PfFNT^Gly107Ser mutant parasites (MMV007839-selected culture B); experiment: L-[14C]lactate uptake by isolated PfFNT Gly107Ser mutant parasites; conditions: read-out: IC50, inhibition of L-[14C]lactate transport, pH 6.1, 4°C, 20 s, mean ± SEM
[5] = tested on: 3D7 P. falciparum trophozoites; experiment: Cytosolic pH (pHcyt) measurement in BCECF-loaded saponin-isolated trophozoites

T1 sequence (O77389 whole entry): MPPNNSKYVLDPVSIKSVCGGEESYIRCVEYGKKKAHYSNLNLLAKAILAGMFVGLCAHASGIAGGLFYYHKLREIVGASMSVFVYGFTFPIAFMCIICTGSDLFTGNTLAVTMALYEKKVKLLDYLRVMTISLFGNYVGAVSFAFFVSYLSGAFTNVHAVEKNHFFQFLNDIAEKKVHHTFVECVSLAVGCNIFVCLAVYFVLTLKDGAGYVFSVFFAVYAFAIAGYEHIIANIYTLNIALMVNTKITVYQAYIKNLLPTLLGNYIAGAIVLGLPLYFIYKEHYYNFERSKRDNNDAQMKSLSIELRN

COc1ccc2c(c1)OC(O)(C(F)(F)C(F)(F)F)CC2=O (stereo not shown) [MMV007839]
IC50 [1]: 35800 ± 2700 nM
IC50 (3D7 parasites): 260 ± 30 nM
IC50 (native PfFNT): 22.5 nM and 23 nM
Effect on transport of [3H]chloroquine via PfCRT [2]: not inhibiting
Inhibition of [3H]hypoxanthine uptake by PfENT1-expressing oocytes (PfENT1): not inhibiting
Inhibition of L-[14C]lactate influx ([3]; 0.5 μM): inhibited L-[^14C]lactate influx to a similar degree
Inhibition of L-[14C]lactate uptake ([3]; 2 μM): complete inhibition
IC50 [4]: 16300 ± 4400 nM
Lactate-induced abrupt acidification of parasite cytosol after pre-treatment ([5]; 2.5 μM pre-treatment, 10 mM L-lactate, 4°C): no such abrupt acidification
Rate of cytosolic acidification after addition of lactate ([5]; 2.5 μM, 4°C, 10 mM L-lactate, mean ± SEM, n = 3): 0.011 ± 0.004 pH unit/min
Rate of cytosolic acidification before addition of lactate ([5]; 2.5 μM, 4°C, mean ± SEM, n = 3): 0.011 ± 0.003 pH unit/min
Cytosolic pH restored after restoration of glucose ([5]; 2.5 μM, glucose (22 mM) restored to glucose-deprived parasites, gradual alkalinisation after initial acidification of ~2 min): approximately 7.1
Effect on cytosolic pH in glucose-containing medium ([5]; glucose-containing medium, 37°C (Fig 2B,C: 1 μM)): cytosolic acidification
